ChEMBL document CHEMBL1201862, “PubChem BioAssay data set” (2004)
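All cell lines were grown in 96-well plates and treated with compound for 48 hours. GI50 = concentration required for 50% inhibition of growth.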 Active and inactive are the calls of the source. Rule as the data show it: active = GI50 up to about 1.1 µM and inactive = higher.

Legend:
Assay in all cases: growth of human tumour cells (NCI), 48 h
OVCAR-3 = test system: OVCAR-3
NCI/ADR-RES = test system: NCI/ADR-RES
SK-MEL-28 = test system: SK-MEL-28
EKVX = test system: EKVX
SK-MEL-2 = test system: SK-MEL-2
MDA-N = test system: MDA-N
KM12 = test system: KM12
HCT-116 = test system: HCT-116
K562 = test system: K562
RXF 393 = test system: RXF 393
786-0 = test system: 786-0
MOLT-4 = test system: MOLT-4
UACC-257 = test system: UACC-257
SF-539 = test system: SF-539
UACC-62 = test system: UACC-62
NCI-H522 = test system: NCI-H522
HOP-62 = test system: HOP-62
SK-OV-3 = test system: SK-OV-3
MCF7 = test system: MCF7
Malme-3M = test system: Malme-3M
CAKI-1 = test system: CAKI-1
SW-620 = test system: SW-620
OVCAR-4 = test system: OVCAR-4
SNB-19 = test system: SNB-19
OVCAR-8 = test system: OVCAR-8
M14 = test system: M14
SN12C = test system: SN12C
LOX IMVI = test system: LOX IMVI
DU-145 = test system: DU-145
SF-295 = test system: SF-295
COLO 205 = test system: COLO 205
HOP-92 = test system: HOP-92
CCRF-CEM = test system: CCRF-CEM
HCT-15 = test system: HCT-15
SK-MEL-5 = test system: SK-MEL-5
UO-31 = test system: UO-31
U-251 = test system: U-251
MDA-MB-231 = test system: MDA-MB-231
TK-10 = test system: TK-10
T47D = test system: T47D
ACHN = test system: ACHN
A498 = test system: A498
A549 = test system: A549
NCI-H226 = test system: NCI-H226
NCI-H23 = test system: NCI-H23
HCC 2998 = test system: HCC 2998
IGROV-1 = test system: IGROV-1
PC-3 = test system: PC-3
RPMI-8226 = test system: RPMI-8226
MDA-MB-435 = test system: MDA-MB-435
SNB-75 = test system: SNB-75
NCI-H460 = test system: NCI-H460
SR = test system: SR
OVCAR-5 = test system: OVCAR-5
HL-60 = test system: HL-60

What does the source list for `CO[C@@](c1ccccc1)(c1nc(C#N)c(N)o1)C(F)(F)F`?
GI50 (OVCAR-3): > 100 µM (inactive); GI50 (NCI/ADR-RES): > 100 µM (inactive); GI50 (SK-MEL-28): > 100 µM (inactive); GI50 (EKVX): > 100 µM (inactive); GI50 (SK-MEL-2): > 100 µM (inactive); GI50 (MDA-N): > 100 µM (inactive); GI50 (KM12): > 100 µM (inactive); GI50 (HCT-116): 78.2 µM (inactive); GI50 (K562): 33.7 µM (inactive); GI50 (RXF 393): > 100 µM (inactive); GI50 (786-0): > 100 µM (inactive); GI50 (MOLT-4): 82.2 µM (inactive); GI50 (UACC-257): 85.5 µM (inactive); GI50 (SF-539): > 100 µM (inactive); GI50 (UACC-62): 77.4 µM (inactive); GI50 (NCI-H522): 26.6 µM (inactive); GI50 (HOP-62): > 100 µM (inactive); GI50 (SK-OV-3): > 100 µM (inactive); GI50 (MCF7): > 100 µM (inactive); GI50 (Malme-3M): > 100 µM (inactive); GI50 (CAKI-1): > 100 µM (inactive); GI50 (SW-620): 86.5 µM (inactive); GI50 (OVCAR-4): > 100 µM (inactive); GI50 (SNB-19): > 100 µM (inactive); GI50 (OVCAR-8): > 100 µM (inactive); GI50 (M14): > 100 µM (inactive); GI50 (SN12C): > 100 µM (inactive); GI50 (LOX IMVI): > 100 µM (inactive); GI50 (DU-145): > 100 µM (inactive); GI50 (SF-295): > 100 µM (inactive); GI50 (COLO 205): > 100 µM (inactive); GI50 (HOP-92): 44.7 µM (inactive); GI50 (CCRF-CEM): 26.5 µM (inactive); GI50 (HCT-15): 85.9 µM; GI50 (SK-MEL-5): > 100 µM (inactive); GI50 (UO-31): 68.1 µM (inactive); GI50 (U-251): > 100 µM (inactive); GI50 (MDA-MB-231): > 100 µM (inactive); GI50 (TK-10): > 100 µM (inactive); GI50 (T47D): > 100 µM (inactive); GI50 (ACHN): > 100 µM (inactive); GI50 (A498): > 100 µM (inactive); GI50 (A549): > 100 µM (inactive); GI50 (NCI-H226): > 100 µM (inactive); GI50 (NCI-H23): > 100 µM (inactive); GI50 (HCC 2998): > 100 µM (inactive); GI50 (IGROV-1): > 100 µM (inactive); GI50 (PC-3): > 100 µM (inactive); GI50 (RPMI-8226): 36.3 µM (inactive); GI50 (MDA-MB-435): > 100 µM (inactive); GI50 (SNB-75): 20.5 µM (inactive)

`O=C(Cc1cccs1)N[C@@H]1C(=O)N2C(C(=O)OC(c3ccccc3)c3ccccc3)=C(CO)CS[C@H]12` was tested. Which GI50 (OVCAR-3) did it give?
Its GI50 is > 100 µM (inactive).

And the GI50 (NCI-H460)?
Its GI50 is 75.2 µM (inactive).

And the GI50 (NCI/ADR-RES)?
The GI50 was 96.6 µM (inactive).

And the GI50 (EKVX)?
The GI50 was > 100 µM (inactive).

And the GI50 (SK-MEL-2)?
Its GI50 is > 100 µM (inactive).

What about the GI50 (MDA-N) of the same compound?
The GI50 was > 100 µM (inactive).

And the GI50 (KM12)?
Its GI50 is 38.1 µM (inactive).

What about the GI50 (HCT-116) of the same compound?
Its GI50 is > 100 µM (inactive).

What about the GI50 (K562) of the same compound?
Its GI50 is > 100 µM (inactive).

And the GI50 (RXF 393)?
Its GI50 is > 100 µM (inactive).

And the GI50 (786-0)?
The GI50 was > 100 µM (inactive).

What about the GI50 (MOLT-4) of the same compound?
The GI50 was > 100 µM (inactive).

And the GI50 (UACC-257)?
The GI50 was > 100 µM (inactive).

And the GI50 (SF-539)?
Its GI50 is > 100 µM (inactive).

What about the GI50 (UACC-62) of the same compound?
Its GI50 is > 100 µM (inactive).

And the GI50 (NCI-H522)?
The GI50 was 16.8 µM (inactive).

And the GI50 (SK-OV-3)?
Its GI50 is > 100 µM (inactive).

What about the GI50 (MCF7) of the same compound?
Its GI50 is > 100 µM (inactive).

And the GI50 (Malme-3M)?
Its GI50 is 40.7 µM (inactive).

And the GI50 (CAKI-1)?
The GI50 was > 100 µM (inactive).

What about the GI50 (SW-620) of the same compound?
The GI50 was > 100 µM (inactive).

What about the GI50 (OVCAR-4) of the same compound?
Its GI50 is 74.3 µM (inactive).

And the GI50 (SR)?
The GI50 was 47.4 µM (inactive).

And the GI50 (OVCAR-5)?
Its GI50 is > 100 µM (inactive).

What about the GI50 (HL-60) of the same compound?
The GI50 was 46.6 µM (inactive).

What about the GI50 (OVCAR-8) of the same compound?
Its GI50 is > 100 µM (inactive).

And the GI50 (M14)?
Its GI50 is > 100 µM (inactive).

What about the GI50 (SN12C) of the same compound?
The GI50 was > 100 µM (inactive).

And the GI50 (LOX IMVI)?
The GI50 was > 100 µM (inactive).

And the GI50 (DU-145)?
The GI50 was > 100 µM (inactive).

What about the GI50 (SF-295) of the same compound?
Its GI50 is > 100 µM (inactive).

What about the GI50 (COLO 205) of the same compound?
The GI50 was > 100 µM (inactive).

What about the GI50 (HOP-92) of the same compound?
Its GI50 is > 100 µM (inactive).

And the GI50 (CCRF-CEM)?
The GI50 was 20 µM (inactive).

And the GI50 (HCT-15)?
Its GI50 is 92.7 µM.

What about the GI50 (SK-MEL-5) of the same compound?
Its GI50 is > 100 µM (inactive).

What about the GI50 (UO-31) of the same compound?
The GI50 was 17.9 µM (inactive).

What about the GI50 (U-251) of the same compound?
The GI50 was > 100 µM (inactive).

What about the GI50 (MDA-MB-231) of the same compound?
The GI50 was > 100 µM (inactive).

What about the GI50 (TK-10) of the same compound?
Its GI50 is > 100 µM (inactive).

And the GI50 (ACHN)?
The GI50 was 91.8 µM (inactive).

What about the GI50 (A498) of the same compound?
The GI50 was > 100 µM (inactive).

And the GI50 (A549)?
Its GI50 is > 100 µM (inactive).

And the GI50 (NCI-H226)?
Its GI50 is 0.0283 µM (active).

What about the GI50 (NCI-H23) of the same compound?
Its GI50 is 46 µM (inactive).

What about the GI50 (HCC 2998) of the same compound?
The GI50 was 52.8 µM (inactive).

And the GI50 (IGROV-1)?
The GI50 was 29.9 µM (inactive).

What about the GI50 (PC-3) of the same compound?
The GI50 was > 100 µM (inactive).

What about the GI50 (RPMI-8226) of the same compound?
The GI50 was 96.2 µM (inactive).

What about the GI50 (MDA-MB-435) of the same compound?
The GI50 was 65.9 µM (inactive).

What does the source list for `CC(=O)O[C@H]1C(=O)[C@@]2(C)C(C(OC(=O)c3ccccc3)[C@]3(O)CC(OC(=O)[C@H](OC(=O)CCC(=O)O)C(NC(=O)c4ccccc4)c4ccccc4)C(C)=C1C3(C)C)C1(OC(C)=O)COC1C[C@@H]2OC(=O)CCC(=O)O` (stereo partly drawn)?
GI50 (OVCAR-4): > 50.6 µM (inactive); GI50 (UO-31): 79.1 µM (inactive)
